From ChEMBL document CHEMBL1201862, “PubChem BioAssay data set” (2004)
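Where inhibition never reached the appropriate level, the endpoint shown equals the highest concentration tested. Otherwise, values were interpolated linearly from a five-concentration, 48-hour dose response in 96-well plates. GI50: concentration for 50% inhibition of growth.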 Active and inactive are the calls of the source. No stated cut-off is given here; in the data, active = GI50 up to about 1.1 µM and inactive = higher.

Assays:
Test in all cases: NCI anticancer screen, dose series, 48 h
CAKI-1 = system: CAKI-1
SF-295 = system: SF-295
SK-MEL-5 = system: SK-MEL-5
SNB-75 = system: SNB-75
OVCAR-3 = system: OVCAR-3
K562 = system: K562
HOP-92 = system: HOP-92
NCI-H460 = system: NCI-H460
TK-10 = system: TK-10
A498 = system: A498
SK-MEL-28 = system: SK-MEL-28
SK-OV-3 = system: SK-OV-3
ACHN = system: ACHN
OVCAR-5 = system: OVCAR-5
UACC-62 = system: UACC-62
IGROV-1 = system: IGROV-1
SW-620 = system: SW-620
SF-539 = system: SF-539
MCF7 = system: MCF7
MDA-N = system: MDA-N

Row | SMILES | GI50 (CAKI-1) | GI50 (SF-295) | GI50 (SK-MEL-5) | GI50 (SNB-75) | GI50 (OVCAR-3) | GI50 (K562) | GI50 (HOP-92) | GI50 (NCI-H460) | GI50 (TK-10) | GI50 (A498) | GI50 (SK-MEL-28) | GI50 (SK-OV-3) | GI50 (ACHN) | GI50 (OVCAR-5) | GI50 (UACC-62) | GI50 (IGROV-1) | GI50 (SW-620) | GI50 (SF-539) | GI50 (MCF7) | GI50 (MDA-N)
1 | CN(C)CCOc1cccc2c1C(=O)c1ccccc1C2=O | 14.7 µM (inactive) | 15.1 µM (inactive) | 12.8 µM (inactive) | 14.9 µM (inactive) | 17.9 µM (inactive) | 11.1 µM (inactive) | 11.8 µM (inactive) | 5.36 µM (inactive) | 17.3 µM (inactive) | 18.1 µM (inactive) | 15.3 µM (inactive) | 20.4 µM (inactive) | 12 µM (inactive) | 16.5 µM (inactive) | 16.3 µM (inactive) | 16.5 µM (inactive) | 8.32 µM (inactive) | 10.4 µM (inactive) |  | 
2 | COC(=O)C1Cc2c([nH]c3ccccc23)C(c2ccccc2O)N1 (configuration not stated) | 98.6 µM (inactive) | 78.5 µM (inactive) | 59 µM (inactive) | 88.1 µM (inactive) | 49.7 µM (inactive) | 50 µM (inactive) | > 100 µM (inactive) | 18.5 µM (inactive) | 52 µM (inactive) | 21.3 µM (inactive) | > 100 µM (inactive) | > 100 µM (inactive) | 58.1 µM (inactive) | > 100 µM (inactive) | 35.4 µM (inactive) | 33.8 µM (inactive) | > 100 µM (inactive) | 34.1 µM (inactive) |  | 
3 | C=CC1(C)CC(=O)C2(O)C(C)(O1)C(OC(C)=O)C(O)C1C(C)(C)CCC(O)C12C (configuration not stated) | 1.37 µM (inactive) | > 142 µM (inactive) | 89.3 µM (inactive) | 52 µM (inactive) | > 150 µM (inactive) | > 150 µM (inactive) | > 150 µM (inactive) | 89.1 µM (inactive) | 1.45 µM (inactive) | > 150 µM (inactive) | > 150 µM (inactive) | 29.7 µM (inactive) | > 100 µM (inactive) | 4.84 µM (inactive) | 69.7 µM (inactive) | 47.3 µM (inactive) | > 150 µM (inactive) | 33.1 µM (inactive) | 81.7 µM (inactive) | 
4 | CCC(=O)OC[n+]1ccc2c(C)c3[nH]c4ccccc4c3c(C)c2c1 | 1.11 µM (active) | 0.532 µM (active) | 1.25 µM (inactive) | 1.29 µM (inactive) | 1.33 µM (inactive) | 0.618 µM (active) | 0.107 µM (active) | 0.033 µM (active) | 1.36 µM (inactive) | 1.21 µM (inactive) | 1.38 µM (inactive) |  | 0.289 µM (active) | 0.516 µM (active) |  | 0.142 µM (active) | 0.173 µM (active) | 0.478 µM (active) |  | 
5 | O=C(/C=C/c1ccccc1Cl)c1ccccc1Cl | 17.6 µM (inactive) | 22.6 µM (inactive) | 31.6 µM (inactive) | 30.3 µM (inactive) | 18.9 µM (inactive) | 21 µM (inactive) | 17.1 µM (inactive) | 19.2 µM (inactive) | 37.5 µM (inactive) | 49.1 µM (inactive) | 19.1 µM (inactive) | 72.6 µM (inactive) | 17.3 µM (inactive) | 21.1 µM (inactive) | 16.7 µM (inactive) | 17.3 µM (inactive) | 12.6 µM (inactive) | 17.6 µM (inactive) |  | 
6 | COc1ccc(NC(=O)Oc2cc(C)c3ccc(=O)cc-3o2)c(OC)c1.COc1ccc(NC(=O)Oc2ccc3c(C)cc(=O)oc3c2)c(OC)c1 | > 100 µM (inactive) | > 100 µM (inactive) | > 100 µM (inactive) |  | > 100 µM (inactive) |  |  | > 100 µM (inactive) | > 100 µM (inactive) | 31.9 µM (inactive) | > 100 µM (inactive) | > 100 µM (inactive) | > 100 µM (inactive) | > 100 µM (inactive) | > 100 µM (inactive) | > 100 µM (inactive) | > 100 µM (inactive) | > 100 µM (inactive) |  | > 100 µM (inactive)
7 | S=C(Nc1ccc(/N=N/c2ccccc2)cc1)SCc1ccccc1 | 16.5 µM (inactive) | 17.9 µM (inactive) | 15.7 µM (inactive) | 18.4 µM (inactive) | 15.6 µM (inactive) | 19.5 µM (inactive) | 13.4 µM (inactive) | 20.2 µM (inactive) | 12.5 µM (inactive) | 19.9 µM (inactive) | 18.1 µM (inactive) | 38.8 µM (inactive) | 17.5 µM (inactive) |  | 17.8 µM (inactive) | 17.7 µM (inactive) | 20.6 µM (inactive) | 18.4 µM (inactive) | 23.3 µM (inactive) | 
8 | Cc1ccccc1-c1c(N)nc(N)nc1C(=O)Nc1nccs1 | > 100 µM (inactive) | > 100 µM (inactive) | > 100 µM (inactive) | > 100 µM (inactive) | > 100 µM (inactive) | > 100 µM (inactive) | > 100 µM (inactive) | > 100 µM (inactive) | > 100 µM (inactive) | > 100 µM (inactive) | > 100 µM (inactive) | > 100 µM (inactive) | > 100 µM (inactive) | > 100 µM (inactive) | > 100 µM (inactive) | > 100 µM (inactive) | > 100 µM (inactive) | > 100 µM (inactive) |  | 
9 | O=C(O)c1ccc(C2=Cc3cc(Cl)ccc3OC2)cc1 | > 100 µM (inactive) | > 100 µM (inactive) | > 100 µM (inactive) | 22 µM (inactive) | > 100 µM (inactive) | > 100 µM (inactive) | > 100 µM (inactive) | > 100 µM (inactive) | > 100 µM (inactive) | > 100 µM (inactive) | > 100 µM (inactive) | > 100 µM (inactive) | > 100 µM (inactive) | > 100 µM (inactive) | > 100 µM (inactive) | > 100 µM (inactive) | > 100 µM (inactive) | > 100 µM (inactive) |  | 
10 | CCN/C(=N\Nc1ccc([N+](=O)[O-])cc1)P(=O)(OC(C)C)OC(C)C | > 100 µM (inactive) |  | 41.1 µM (inactive) | 49.9 µM (inactive) | > 100 µM (inactive) | > 100 µM (inactive) | 66.5 µM (inactive) | > 100 µM (inactive) | > 100 µM (inactive) | > 100 µM (inactive) | 99.8 µM (inactive) |  | > 100 µM (inactive) | > 100 µM (inactive) | 64 µM (inactive) |  | > 100 µM (inactive) | > 100 µM (inactive) |  | 
11 | CN1C(=O)CC2CCC(=O)N2c2cccnc21 (configuration not stated) | > 100 µM (inactive) | > 100 µM (inactive) | > 100 µM (inactive) |  | > 100 µM (inactive) | > 100 µM (inactive) |  | > 100 µM (inactive) | > 100 µM (inactive) |  | > 100 µM (inactive) |  | > 100 µM (inactive) |  | 75.5 µM (inactive) | > 100 µM (inactive) | > 100 µM (inactive) | > 100 µM (inactive) | > 100 µM (inactive) | > 100 µM (inactive)
12 | CC(C)(C)OC(=O)N1N=NC2C3OC(CC3=O)C21 (configuration not stated) | > 100 µM (inactive) | > 10 µM (inactive) | > 10 µM (inactive) | > 100 µM (inactive) | > 100 µM (inactive) | > 100 µM (inactive) | > 100 µM (inactive) | > 100 µM (inactive) | > 100 µM (inactive) | > 100 µM (inactive) | > 100 µM (inactive) | 18.6 µM (inactive) | > 100 µM (inactive) | > 100 µM (inactive) | > 100 µM (inactive) | > 100 µM (inactive) | > 100 µM (inactive) | > 100 µM (inactive) |  | 
13 | Cc1cn(C2CC(ON3C(=O)c4ccccc4C3=O)C(CO)O2)c(=O)[nH]c1=O (configuration not stated) |  | > 10 µM (inactive) |  | > 10 µM (inactive) | > 10 µM (inactive) | > 10 µM (inactive) | 0.855 µM (active) | > 10 µM (inactive) | > 10 µM (inactive) |  |  | > 10 µM (inactive) | > 10 µM (inactive) | > 10 µM (inactive) | > 10 µM (inactive) | > 10 µM (inactive) | > 10 µM (inactive) | > 10 µM (inactive) | > 10 µM (inactive) | 
14 | CC[C@@]12N=C(N(C)C)C[C@]1(O)ON=C2C | > 100 µM (inactive) | > 100 µM (inactive) | > 100 µM (inactive) | > 100 µM (inactive) | > 100 µM (inactive) | > 100 µM (inactive) | > 100 µM (inactive) | > 100 µM (inactive) | > 100 µM (inactive) | > 100 µM (inactive) | > 100 µM (inactive) | > 100 µM (inactive) | > 100 µM (inactive) |  |  | > 100 µM (inactive) | > 100 µM (inactive) | > 100 µM (inactive) |  | 
15 | CC12CCC(CC1)C(C)(C)O2 [EUCALYPTOL] |  | 21.5 µM (inactive) | 5.5 µM (inactive) | 39.3 µM (inactive) | 36.1 µM (inactive) |  | 24.3 µM (inactive) |  | > 100 µM (inactive) | 0.923 µM (active) | 62.4 µM (inactive) | 57.5 µM (inactive) | > 100 µM (inactive) | 64.7 µM (inactive) | 10 µM (inactive) | 30.4 µM (inactive) |  | 18.3 µM (inactive) | 0.644 µM (active) | 
16 | Cn1c(O)c(C(=O)Nc2ccc([N+](=O)[O-])cc2)c(=O)n(C)c1=S | 2.81 µM (inactive) | 1.31 µM (inactive) | 0.776 µM (active) | 1.63 µM (inactive) | 2.37 µM (inactive) | 3.53 µM (inactive) | 1.54 µM (inactive) | 2.82 µM (inactive) | 2.77 µM (inactive) | 0.499 µM (active) | 1.88 µM (inactive) | 3.64 µM (inactive) | 2.48 µM (inactive) | 4.91 µM (inactive) | 1.23 µM (inactive) | 2.55 µM (inactive) | 3.49 µM (inactive) | 1.9 µM (inactive) | 1.78 µM (inactive) | 
